US20220378901A1, “APPLICATION OF PSEUDOMONAS AERUGINOSA VACCINE IN RESPIRATORY DISEASE” (Sichuan University, priority 2019, published 2022)

Legend:
[1] = system: SKLBPA1; experiment: Immunoprotection against SKLBPA1 pulmonary infection; type: in vivo, Pseudomonas aeruginosa
Text: . […] One week after the last immunization, SKLBPA1 (which is the homologous strain of vaccine bacteria) and clinical carbapenem-resistant Pseudomonas aeruginosa (CRPA) C58 (from sputum, the drug sensitivity information of clinical C58 is shown in Table 7, which is different from the serotype of vaccine bacteria) are used for challenge.

[2] = system: SKLBPA1; experiment: Efficacy against infection of vaccine alone or in combination with antibiotics; settings: 24 h after infection; no immunization; ATM 4 times (2 h, 4 h, 6 h, 8 h, 100 mg/kg/time); Model 24 h 6.86 ± 0.45
Method: The mice in the immunization group are subcutaneously immunized with SKLB-V1 in the groin at 1×10^7 CFU/100 μL, with 3 injections. […] 24 h after the last immunization, the bacteria SKLBPA1 are used for challenge.

Compound: C[C@H]1[C@H](NC(=O)/C(=N\OC(C)(C)C(=O)O)c2csc(N)n2)C(=O)N1S(=O)(=O)O [Aztreonam, aztreonam]
- Bacterial Load log10CFU ([1]; in vivo): 4.31 ± 1.27 log10CFU
- Bacterial Load log10CFU ([1]; mice lung tissue, 4 h after infection, SKLB-V1 1×10^7 CFU s.c. at 0, 1st, 2nd weeks, aztreonam 100 mg/kg i.p. from 2 h, model 4.50 ± 1.05): 4.68 ± 0.22 log10CFU
- Lung LOG10CFU [2]: 4.11 ± 0.44 LOG10CFU
